One test has as its system C57BL/6 mice. Briefly: Peptide vaccination of C57BL/6 mice, IFNγ ELISPOT of spleen and draining lymph node cells. Particulars: 100 μg peptide s.c. with Montanide ISA 51 VG; one vaccination; day 7; spleen and dLNs; FIG. 6. It is filed as in vivo, mouse. The procedure: (§1) Animals were vaccinated subcutaneously with 100 μg peptide in DMSO/H2O in a 1:1 emulsion with incomplete Montanide ISA 51 VG. Montanide ISA 51 VG+DMSO/H2O served as a control vaccine. For subsequent analysis of the immune response to the ArgLong2 peptide, mice were sacrificed on day 7 and spleen and draining lymph nodes (dLNs) were harvested for ELISPOT setup.
Murine immune cells were subjected to ELISPOT analysis. Single cell suspension was prepared from spleen or dLNs by passage through a cell strainer. After lysis of red blood cells, 0.6-0.8×10^6 cells/well were seeded into ELISPOT plates coated with anti-IFNγ antibody. Peptide of interest was added to designated wells and cells were incubated overnight with peptide. The next day, cells were removed, plates washed and incubated with biotinylated detection antibody. Finally, after addition of Streptavidin-ALP and substrate visible spots appear. Each spot corresponds to an individual IFNγ producing cell. Plates were analysed in an Immunospot analyser and plotted.

Test [1] relates to PBMCs from cancer patients and healthy donors. Put plainly: in vitro IFNγ ELISPOT of PBMCs after 7 days with peptide and IL-2. It is filed as cell-based, human. The procedure:
PBMCs from healthy donors were isolated using density gradient separation over LymphoprepTM (STEMCELL Technologies) and cryopreserved at -150° C. in FBS supplemented with 10% DMSO. PBMCs from cancer patients were isolated from blood sample a minimum of four weeks after the termination of any anti-cancer therapy. The protocol was approved by the Scientific Ethics Committee for The Capital Region of Denmark and conducted in accordance with the provisions of the Declaration of Helsinki. Written informed consent from the patients was obtained before study entry. […] The sequences of the peptides used in these experiments are shown in full below in alignment with each other, and are also set out in the section entitled “Sequences”). Peptides are described by SEQ ID NO, by name, or by reference to the start and end positions of each peptide sequence within the full length sequence of Arginase 1. Each may be used interchangeably. For example, the peptide of SEQ ID NO: 1 may alternatively be referred to by the name ArgLong2, or may alternatively be referred to as […]-206 (given a start position of 169 and end position of 206). The intended reference in each case will be clear from the context. For in vitro ELISPOT, PBMCs from cancer patients and healthy donors were pulsed with 20 μM of Arginase 1-derived peptides and 120 U/ml IL-2 in 24-well plates for 7 days before being used in an ELISPOT assay. The cells were placed in 96-well nitrocellulose ELISPOT plates (MultiScreen MAIP […]; Millipore) pre-coated with IFNγ capture antibody (Mabtech). Arginase peptides added to a final concentration of 5 μM and plates incubated at 37° C. for 14-16 hours. After the incubation the cells were washed off and secondary biotinylated Ab (Mabtech, cat. 3420-6-1000) was added for 2 hours at room temperature. Unbound secondary antibody was washed off and streptavidin conjugated alkaline phosphatase (AP) (Mabtech, cat. 3310-10) was added for 1 hour at room temperature. Unbound conjugated enzyme was washed off and the assay was developed by adding BCIP/NBT substrate (Mabtech, cat. 3650-10). Developed ELISPOT plates were analyzed on CTL ImmunoSpot S6 Ultimate-V analyzer using Immunospot software v5.1. Responses were reported as the difference between average numbers of spots in wells stimulated with Arginase 1 and wells without added peptide.

Test [2] deals with PBMCs from healthy donors and cancer patients. Briefly: ex vivo IFNγ ELISPOT of PBMCs without prior peptide stimulation. It is filed as cell-based, human. The settings on record: 4 healthy donors and 2 cancer patients; FIG. 4A. The procedure: For in vitro ELISPOT, PBMCs from cancer patients and healthy donors were pulsed with 20 μM of Arginase 1-derived peptides and 120 U/ml IL-2 in 24-well plates for 7 days before being used in an ELISPOT assay. The cells were placed in 96-well nitrocellulose ELISPOT plates (MultiScreen MAIP N45; Millipore) pre-coated with IFNγ capture antibody (Mabtech). Arginase peptides added to a final concentration of 5 μM and plates incubated at 37° C. for 14-16 hours. After the incubation the cells were washed off and secondary biotinylated Ab (Mabtech, cat. 3420-6-1000) was added for 2 hours at room temperature. Unbound secondary antibody was washed off and streptavidin conjugated alkaline phosphatase (AP) (Mabtech, cat. 3310-10) was added for 1 hour at room temperature. Unbound conjugated enzyme was washed off and the assay was developed by adding BCIP/NBT substrate (Mabtech, cat. 3650-10). Developed ELISPOT plates were analyzed on CTL ImmunoSpot S6 Ultimate-V analyzer using Immunospot software v5.1. Responses were reported as the difference between average numbers of spots in wells stimulated with Arginase 1 and wells without added peptide.
PBMCs from 4 healthy donors and 2 cancer patients (1 breast cancer and 1 malignant melanoma) that had shown strong responses in in vitro ELISPOT were directly tested for responses to ArgLong2 peptide in ex vivo IFNγ ELISPOT.

Test [3] has as its system MC38 colon adenocarcinoma. Briefly: Tumour vaccination, MC38 colon adenocarcinoma tumour model. In kind it is in vivo, mouse. Particulars: 100 μg ArgLong2 with Montanide, days 0, 7, 14; p=0.030 Mixed effects analysis; FIG. 7. As for the experimental part:
as §1
Each animal was inoculated subcutaneously into the right flank with 0.5×10^6 syngeneic tumour cells in 100 μl media. Both the syngeneic B16 F10 melanoma cells line and the syngeneic MC38 colon adenocarcinoma cell line were used. Vaccinations were initiated on day 0 and repeated once a week (day 7 and day 14). Peptide and control vaccinations were performed as described above.
Tumour growth was monitored and tumours were measured approximately every second day. Tumour volume was calculated at V [mm^3]=L×W^2/2 (where L is the longest diameter and W perpendicular to L). Maximum tumor size before mice were euthanized was 864 mm^3 (L=12 mm, W=12 mm).

Regarding “ISAKDIVYIGLRDVDPGEHYILKTLGIKYFSMTEVDRL (Peptide fragment of human Arginase 1 (ArgLong2)) [38-mer, positions 169-206 of full length human Arginase 1]”, the “immunogenicity in mice (vaccine-specific T cell responses, IFNγ ELISPOT)” value in the test with C57BL/6 mice is “strongly immunogenic”. The “responses in IFNγ ELISPOT (in words)” value in test [1] (PBMCs from 6 healthy donors, peptide and low dose IL-2 for 1 week, FIG. 1) is listed as “superior at stimulating T cell responses”. The “peptide specific spots in IFNγ ELISPOT where too numerous to count (TNTC)” value in test [1] (TNTC in six healthy donors and 2 cancer patients, 2.2-5×10^5 PBMCs/well, FIG. 2) is reported as above 500 spots. In addition, the “donors with high responses in IFNγ ELISPOT” value in test [1] (out of 6 healthy donors, PBMCs stimulated with peptide and low dose IL-2 for 1 week, FIG. 1) is reported as 4 donors. In addition, the “cancer patients showing responses in IFNγ ELISPOT” value in test [1] (out of 16 cancer patients (8 melanoma, 6 multiple myeloma, 1 breast cancer, 1 renal cell carcinoma), strong responses counted for ArgLong2, FIG. 2) was 8 cancer patients. Moreover, in test [1] (out of 19 healthy donors, strong responses counted for ArgLong2, FIG. 2), the “healthy donors showing responses in IFNγ ELISPOT” value worked out at 14 healthy donors. In addition, in test [2], the “spontaneous responses in ex vivo IFNγ ELISPOT” value is recorded as “significant spontaneous responses in all 6 donors”. Besides, in test [3], the “tumour growth vs control vaccination, MC38” value is given as “significantly delay tumour growth”.

The values above are taken from US12194081B2, “ARGINASE1 polypeptides” (IO BIOTECH APS, priority 2018, dated 2025).
